Columns and labels:
Esterase, Porcine Liver = assay: Test for measuring enzyme activity: hydrolysis of the sample by esterase, followed by ESR; type: in vitro ADME; conditions: 1 mM sample solution, esterase 0.2-200 U/ml in phosphate buffered saline pH7.4, one minute, oxidised to nitroxide
Protocol: Capability of enzyme (esterase) activity determination by ESR using 1-acetoxy-3-carbamoyl-2,2,5,5-tetramethylpyrrolidine was examined. Esterase (3360 U/ml, manufactured by Sigma Co., Esterase, Porcine Liver) was diluted with a phosphate buffered saline solution (pH7.4, 67 mM) to concentrations of 0.2, 2, 20, and 200 U/ml. 100 μl of each diluent was added to 100 μl of a 1 mM sample solution, and allowed to stand for one minute. Specifically, the sample was converted into a hydroxylamine derivative using the esterase. Next, 10 μl of 10 mM sodium periodide phosphate buffered saline solution was added. Specifically, the hydroxylamine derivative produced was converted into a nitroxide derivative which can be measured by ESR. Finally, this solution is suctioned into a flat cell (manufactured by Labotech Co.) to measure ESR spectrum using “JES-REIX” manufactured by JEOL Ltd after one minute.
In addition, it was confirmed that the esterase activity can be measured by using this reaction.

rat brain = assay: Measurement of ESR-CT image of rat brain after intraperitoneal administration; type: in vivo, Wister male rats; conditions: 6 ml of 150 mM saline solution intraperitoneally, ESR-CT 20 minutes after administration
Protocol: 6 ml of 150 mM physiological saline solution of 1-acetoxy-3-carbamoyl-2,2,5,5-tetramethylpyrrolidine was intraperitoneally administered to Wister male rats (200 g, age: nine weeks) anesthesized with pentobarbital. The head of the rat was secured so that the part of the head 9 mm ahead of the external auditory meatus came to the center of the resonator. ESR-CT was measured 20 minutes after administration. The measuring conditions of ESR-CT were as follows.
(Measurement Conditions of ESR-CT)
Instrument: 700 MHz band electron spin resonance apparatus
Microwave frequency: 720 MHz
Central magnetic field: 25 mT
Magnetic field sweep width: 15 mT
Magnetic field modulation width: 0.2 mT
Magnetic field modulation frequency: 100 kHz
Magnetic field gradient: 1 mT/cm
Magnetic field gradient rotational angle: 20°
The measured black-and-white picture image is shown in FIG. 2, and a color picture image is attached as a reference figure. In FIG. 2, A is a rat brain ESR-CT image 1 mm posterior to the bregma, and B is a rat brain ESR-CT image 3 mm posterior to the bregma. FIG. 3 is a drawing describing the part of the brain indicated by the anatomical chart in FIG. 2.

CC(=O)ON1C(C)(C)CC(C(N)=O)C1(C)C (stereo not drawn) [1-Acetoxy-3-carbamoyl-2,2,5,5-tetramethylpyrrolidine]
hydrolysis by esterase (ESR signal strength vs esterase concentration) (Esterase, Porcine Liver): hydrolyzed by esterase in a short time and the reaction is quantitative | transfer to the brain and conversion to nitroxide derivative (rat brain): hydrolyzed after being transferred to the brain, and oxidized by intracerebral active oxygen and free radicals into a nitroxide derivative | melting point: 150 to 151 °C

CCC(=O)ON1C(C)(C)CC(C(N)=O)C1(C)C (stereo not drawn) [Example 2, 1-Propionyloxy-3-carbamoyl-2,2,5,5-tetramethylpyrrolidine]
melting point: 116 to 117 °C

CC1(C)CC(C(N)=O)C(C)(C)N1OC(=O)c1ccccc1 (stereo not drawn) [Example 4, 1-Benzoyloxy-3-carbamoyl-2,2,5,5-tetramethylpyrrolidine]
melting point: 199 to 201 °C

CC(=O)OC1CC(C)(C)N(OC(C)=O)C(C)(C)C1 [Example 5, 1,4-Diacetoxy-2,2,6,6-tetramethylpiperidine]
melting point: 72 to 73 °C

Reference: patent US6713492B1, “N-acyloxylated cycloalkyl compounds, composition containing the same and methods of use therefor” (Daiichi Radioisotope Laboratories, Ltd., priority 1998, dated 2004)
